Read-outs that look alike come from different tables or passages of the source.
Assays:
[1] = tested on: MCF 7 (human breast adenocarcinoma); experiment: MTT cytotoxicity assay, MCF 7; format: cell-based; settings: mean ± SD
Description: (§1) Three cancerous cell lines, as well as one normal fibroblast cell line, were bought from the ATCC, USA: MCF 7 (human breast adenocarcinoma), A2780 (human ovary adenocarcinoma), HT 29 (human colon adenocarcinoma), and MRC5 (normal human fetal lung fibroblast). The culture procedure was performed as described in the literature. Briefly, the cells were sub-cultured at 37 °C, 5% CO2, 95% air, and 100% relative humidity. RPMI-1640 media (10% FBS, L-glutamine and 1% antibiotic-antimycotic) was used for all cells except for MRC5, which was maintained in Eagles minimum essential medium (EMEM, 10% FBS and 1% antibiotic-antimycotic). Cytotoxicity of compounds 1–7 and 9 was evaluated by an MTT assay as previously described. Each of the three cell lines and one normal fibroblast were cultured in 96-well plates (3 × 10^3/well), and incubated at 37 °C overnight. Final concentrations of each compound were: 0, 0.05, 0.5, 5, 25, and 50 μM in media (DMSO 0.1%). Each concentration was tested in triplicates. The plates were incubated for 72 h and then MTT (50 μL) was added to each well. Plates were incubated for 3 h, supernatant was aspirated, and 100 μL of DMSO was added to each well. Absorbance was read on a multi-plate reader. The optical density of the purple formazan A550 is proportional to the number of viable cells. Compound concentrations causing 50% inhibition (IC50) compared to control cell growth (100%) were determined. GraphPad Prism version 5.00 for Windows, GraphPad Software (San Diego, CA, USA) was used for analysis.

[2] = tested on: A2780 (human ovary adenocarcinoma); experiment: MTT cytotoxicity assay, A2780; format: cell-based; settings: 72 h, mean ± SD
Description: as §1

[3] = tested on: HT 29 (human colon adenocarcinoma); experiment: MTT cytotoxicity assay, HT 29; format: cell-based; settings: mean ± SD
Description: as §1

[4] = tested on: MRC5 (normal human fetal lung fibroblast); experiment: MTT cytotoxicity assay, MRC5 normal fibroblasts; format: cell-based; settings: 72 h, normal fibroblast cell line, mean ± SD
Description: as §1

[5] = tested on: MCF 7, A2780, and HT 29 cancer cell lines; experiment: MTT cytotoxicity assay, tested cancer cell lines taken together; format: cell-based, human; settings: for folds more selective/cytotoxic against tested cancer cell lines compared to MRC5 normal cells: ratio of MRC5 IC50 to cancer cell line IC50; for IC50: 72 h, MTT assay, MCF 7, A2780, HT 29, read-out: IC50 values against the three tested cancer cell lines (range over cell lines)
Description: as §1

MCF 7 cells [6] = experiment: Annexin V FITC/PI apoptosis assay; format: cell-based, human; settings: MCF 7, 24 h, 5, 10 and 20 µM
Text: Apoptosis was quantified by detecting cell surface exposure of phosphatidylserine (PS) in apoptotic cells using annexin V PI/FITC. Living cells stained with neither of the two dyes (PI−/annexin V−), while early apoptotic cells stain only with annexin V (PI−/annexin V+). In late apoptosis, cell membrane integrity is lost allowing penetration of PI (PI+/annexin V+); while in necrosis (death), cells stain with PI only (PI+/annexin V−).
The Annexin V FITC/PI assay was devised to quantify apoptosis using MCF 7 cells. MCF 7 cells were cultured in 6 well plates (1 × 10^5 cells/well) in 2 mL medium overnight at 37 °C. Then it was treated by compound 1 (24 h; final concentrations: 0, 5, 10, and 20 µM). Media was collected in tubes and kept on ice, and remaining cells were trypsinized, incubated at 37 °C and added to previous tubes. Cells were centrifuged (350 g) and supernatants were discarded. Cells were washed with PBS, centrifuged and pellets re-suspended in binding buffer (100 μL) and annexin V FITC (10 μL). Tubes were incubated at room temperature in the dark for 20 min. Binding buffer (400 μL) and 10 μL propidium iodide (PI) were added. Samples were analyzed by flow cytometry (BC FC500) within 1 h. Viable cells were differentiated from early and late apoptotic/necrotic cells by annexin V (X axis) and PI staining (Y axis).

MCF 7 cells [7] = experiment: Cell cycle analysis (PI, flow cytometry); format: cell-based, human; settings: MCF 7, 24 h, 5, 10 and 20 µM, compared to the control
Description: The cell cycle is a series of changes occurring from the initial phase of cell formation leading to its division as a consequence of a specific mechanism. Cell cycle phases include G1 (gap 1), S (synthesis), G2 (gap 2), and M (mitosis), with cell cycle arrest usually taking place in the G1/S or the G2/M check points. Compound 1 was used to treat the MCF 7 cell line (24 h; 5 µM, 10 µM, and 20 µM) to investigate possible cell cycle effect.
Cell cycle analysis was performed using MCF 7 cells, which were cultured in 6 well plates (1 × 10^5 cells/well in 2 mL medium), before treatment with compound 1 (0, 5, 10, and 20 μM; 24 h). Cells were washed with cold PBS and trypsinized. Collected cells were centrifuged at 350 g/5 min, and supernatant discarded. Pellets were washed in cold PBS, centrifuged, and fixed overnight in 70% ice-cold ethanol. Centrifuged cells were re-suspended in cold PBS with the addition of ribonuclease A (15 min), followed by PI (2 µL/mL). Samples were held on ice and analyzed by flow cytometry. Data analysis of the DNA contents (PI bound to DNA) of 20,000 events was carried out using Expo 32 software.

Structure (SMILES) | IC50 ([1]; Homo sapiens, MCF7, 72 h) [nM] | IC50 [2] [nM] | IC50 ([3]; Homo sapiens, HT-29, 72 h) [nM] | IC50 [4] [nM] | folds more selective/cytotoxic against tested cancer cell lines compared to MRC5 normal cells [5] | IC50 ([1]; 72 h) [nM] | IC50 ([3]; 72 h) [nM] | induction of apoptosis (in words) (MCF 7 cells [6]) | induction of apoptosis (in words) (MCF 7 cells [6]; listed as compound 1) | effect on cell cycle (in words) (MCF 7 cells [7]) | effect on cell cycle (in words) (MCF 7 cells [7]; listed as compound 1) | IC50 ([5]; Homo sapiens) [nM] | IC50 [5] [nM]
COc1cc(-c2oc3cc(OC)c(OC)c(O)c3c(=O)c2OC)cc(O)c1OC [Compound 2, 5,3’-dihydroxy-3,6,7,4’,5’-penta-O-methyl flavone] | 6810 ± 40 | 8970 ± 1720 | 9070 ± 220 | 5460 ± 1570 | not selective | – | – | – | – | – | – | – | –
COc1cc(-c2oc3cc(OC)c(OC)c(OC(C)=O)c3c(=O)c2OC)cc(OC)c1OC [Compound 9, 5-O-acetyl-3,6,7,3’,4’,5’-hexa-O-methyl flavone] | 2000 to 3000 | – | 2000 to 3000 | 19000 ± 2980 | 6–8 folds | 2190 ± 640 | 3180 ± 640 | – | – | – | – | – | –
COc1cc2oc(-c3ccc(O)cc3)c(OC)c(=O)c2c(O)c1OC [Compound 1, 5,4’-dihydroxy-3,6,7-tri-O-methyl flavone (penduletin)] | ≤ 2000 | 530 ± 450 | ≤ 2000 | 4400 ± 1450 | 2–9 folds | 2170 ± 260 | 2160 ± 20 | doubled MCF 7 apoptotic populations in a dose dependent manner | induced remarkable apoptosis in a dose dependent manner | caused G1 cell cycle arrest | caused dose-dependent G1 arrest | 530 to 9070 | 530 to 2170
COc1cc(-c2oc3cc(OC)c(OC)c(O)c3c(=O)c2OC)cc(OC)c1OC [Compound 3, 5-hydroxy-3,6,7,3’,4’,5’-hexa-O-methyl flavone] | 2760 ± 160 | 3730 ± 1750 | 2710 ± 1250 | 11700 ± 1580 | 4–5 folds | – | – | – | – | – | – | 530 to 9070 | –

— publication PMC8510169, “Isolation, Characterization, Complete Structural Assignment, and Anticancer Activities of the Methoxylated Flavonoids from Rhamnus disperma Roots” (Molecules, 2021)
